# Measured values from BindingDB's records for doi:10.1016/0006-8993(87)90040-0 (St, Marianna University School of Medicine, 1987).
# Molecular target: D(2) dopamine receptor (Rattus norvegicus, UniProt P61169)
# Sequence (P61169 whole entry): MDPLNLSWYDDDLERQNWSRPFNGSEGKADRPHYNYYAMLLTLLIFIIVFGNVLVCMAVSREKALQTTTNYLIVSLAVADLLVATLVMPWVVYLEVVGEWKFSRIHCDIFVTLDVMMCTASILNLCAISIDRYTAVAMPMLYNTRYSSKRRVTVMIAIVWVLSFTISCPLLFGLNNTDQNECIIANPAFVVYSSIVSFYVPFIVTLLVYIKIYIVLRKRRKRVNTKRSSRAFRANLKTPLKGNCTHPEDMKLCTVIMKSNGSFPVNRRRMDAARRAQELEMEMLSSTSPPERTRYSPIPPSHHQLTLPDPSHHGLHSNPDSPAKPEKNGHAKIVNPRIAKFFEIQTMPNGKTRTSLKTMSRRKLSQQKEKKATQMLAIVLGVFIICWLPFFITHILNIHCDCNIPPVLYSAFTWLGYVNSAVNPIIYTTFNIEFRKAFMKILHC
row,Ki [nM],SMILES
1,15,COc1ccc2c(c1)N(C[C@@H](C)CN(C)C)c1ccccc1S2
2,77,CCN(CC)CCNC(=O)c1cc(S(C)(=O)=O)ccc1OC [CAS_51012-32-9]
3,2.4,CCN1CCC[C@H]1CNC(=O)c1cc(S(=O)(=O)CC)ccc1OC [Sultopride]
4,8790,COc1cc2nc(N3CCN(C(=O)c4ccco4)CC3)nc(N)c2cc1OC [[3H]-Minipress]
5,158,COC(=O)[C@@H]1[C@H]2C[C@H]3c4[nH]c5ccccc5c4CCN3C[C@@H]2CC[C@@H]1O [yohimbic acid methyl ester]
